Measurements from ChEMBL document CHEMBL1131827, “Ring E analogs of methyllycaconitine (MLA) as novel nicotinic antagonists” (Bioorg Med Chem Lett, 1999).

Each compound was assayed against Chromaffin cell neuronal nicotinic acetylcholine receptor (Bos taurus) (UniProt Q8SPU6+Q07263+P54131) (assay: Antagonist activity was determined by inhibition of neuronal nicotine acetylcholine receptor (nAChR)-stimulated catecholamine release in cultured bovine adrenal chromaffin cells). Conditions: concentration not given here.
Format: functional
Parameters: concentration or dose not given beside the values

Chain of Chromaffin cell neuronal nicotinic acetylcholine receptor (Bos taurus) (P54131 whole entry, looked up): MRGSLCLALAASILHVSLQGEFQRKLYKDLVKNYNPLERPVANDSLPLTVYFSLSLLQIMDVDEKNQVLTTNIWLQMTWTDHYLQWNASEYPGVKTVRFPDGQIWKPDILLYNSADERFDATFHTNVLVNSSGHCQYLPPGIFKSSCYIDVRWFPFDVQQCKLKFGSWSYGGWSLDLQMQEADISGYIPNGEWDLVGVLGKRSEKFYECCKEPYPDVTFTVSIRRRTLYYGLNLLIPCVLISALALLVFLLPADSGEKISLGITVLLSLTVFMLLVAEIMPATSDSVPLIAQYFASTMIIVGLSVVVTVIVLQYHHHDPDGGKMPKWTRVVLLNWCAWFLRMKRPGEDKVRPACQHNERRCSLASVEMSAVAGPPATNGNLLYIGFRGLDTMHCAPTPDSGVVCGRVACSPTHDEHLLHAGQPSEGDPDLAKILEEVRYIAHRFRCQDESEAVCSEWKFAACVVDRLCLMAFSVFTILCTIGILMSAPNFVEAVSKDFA
Chain of Chromaffin cell neuronal nicotinic acetylcholine receptor (Bos taurus) (Q07263 whole entry, looked up): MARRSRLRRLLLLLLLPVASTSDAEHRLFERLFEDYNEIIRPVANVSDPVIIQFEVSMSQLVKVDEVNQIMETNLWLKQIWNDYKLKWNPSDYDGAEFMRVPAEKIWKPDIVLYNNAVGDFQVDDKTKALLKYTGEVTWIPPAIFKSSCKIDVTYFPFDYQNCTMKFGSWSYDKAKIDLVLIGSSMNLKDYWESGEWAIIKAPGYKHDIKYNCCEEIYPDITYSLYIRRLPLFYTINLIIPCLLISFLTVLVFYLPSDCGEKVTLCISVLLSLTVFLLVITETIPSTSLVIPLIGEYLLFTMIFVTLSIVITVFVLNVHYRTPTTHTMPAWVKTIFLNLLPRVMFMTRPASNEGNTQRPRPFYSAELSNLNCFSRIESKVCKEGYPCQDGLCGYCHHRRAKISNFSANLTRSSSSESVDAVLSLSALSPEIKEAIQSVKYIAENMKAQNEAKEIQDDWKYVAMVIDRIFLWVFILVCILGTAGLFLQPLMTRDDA
Chain of Chromaffin cell neuronal nicotinic acetylcholine receptor (Bos taurus) (Q8SPU6 whole entry, looked up): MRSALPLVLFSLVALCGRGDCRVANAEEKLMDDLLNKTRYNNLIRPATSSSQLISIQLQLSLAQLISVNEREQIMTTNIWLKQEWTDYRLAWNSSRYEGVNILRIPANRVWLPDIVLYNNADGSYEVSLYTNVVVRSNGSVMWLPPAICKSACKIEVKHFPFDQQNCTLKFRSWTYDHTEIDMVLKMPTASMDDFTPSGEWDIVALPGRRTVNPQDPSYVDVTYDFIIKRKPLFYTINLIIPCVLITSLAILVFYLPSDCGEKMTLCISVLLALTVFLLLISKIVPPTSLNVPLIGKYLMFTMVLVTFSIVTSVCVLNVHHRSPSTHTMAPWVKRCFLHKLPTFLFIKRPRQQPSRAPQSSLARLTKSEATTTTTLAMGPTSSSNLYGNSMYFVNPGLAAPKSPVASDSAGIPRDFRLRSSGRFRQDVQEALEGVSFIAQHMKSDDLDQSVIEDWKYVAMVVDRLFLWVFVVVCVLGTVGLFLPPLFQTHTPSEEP

**Q.** For `CC(C)N1CCCC(COC(=O)c2ccccc2N2C(=O)CCC2=O)C1` (centres undefined), which inhibition is on record?
**A.** 36.4%

**Q.** With `CC1CC(=O)N(c2ccccc2C(=O)OCC2CCCN(CCc3ccccc3)C2)C1=O` (centres undefined) as the compound, how does the inhibition read?
**A.** 37%

**Q.** For `CCN1CCCC(COC(=O)c2ccccc2N2C(=O)CC(C)C2=O)C1` (centres undefined), which inhibition is on record?
**A.** 33.5%

**Q.** How did the inhibition turn out when `CCOCCN1CCCC(COC(=O)c2ccccc2N2C(=O)CC(C)C2=O)C1` (centres undefined) was run?
**A.** 45.9%

**Q.** For `CC1CC(=O)N(c2ccccc2C(=O)OCC2CCCN(CCCc3ccccc3)C2)C1=O` (centres undefined), which inhibition is on record?
**A.** 86.3%

**Q.** With `CCCCN1CCCC(COC(=O)c2ccccc2N2C(=O)CCC2=O)C1` (centres undefined) as the compound, how does the inhibition read?
**A.** 38.4%

**Q.** `CC1CC(=O)N(c2ccccc2C(=O)OCC2CCCN(C)C2)C1=O` (centres undefined) was tested. Which inhibition did it give?
**A.** 30.1%

**Q.** Which inhibition does the source give for `CC1CC(=O)N(c2ccccc2C(=O)OCC2CCCN(C(C)C)C2)C1=O` (centres undefined) here?
**A.** 56.5%

**Q.** For `CCN1C[C@]2(COC(=O)c3ccccc3N3C(=O)C[C@H](C)C3=O)CC[C@H](OC)[C@@]34[C@@H]5C[C@H]6[C@H](OC)[C@@H]5[C@](O)(C[C@@H]6OC)[C@](O)([C@@H](OC)[C@H]23)[C@@H]14`, which inhibition is on record?
**A.** 95.2%
